Data as given in PubChem BioAssay (NCI).
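Growth conditions: 96-well plates. Treatment: test compound, 48 hours, 5 concentrations. Analysis: linear interpolation between bracketing concentrations; unreached endpoints set to highest concentration. The concentration for 50% growth inhibition is given as GI50. The concentration for full growth arrest is given as TGI.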

Tests used:
Experiment in all cases: growth of human tumour cells (NCI), 48 h
CCRF-CEM leukemia = system: CCRF-CEM leukemia
HL-60(TB) leukemia = system: HL-60(TB) leukemia
HOP-62 NSCLC = system: HOP-62 NSCLC
LOX IMVI melanoma = system: LOX IMVI melanoma
MOLT-4 leukemia = system: MOLT-4 leukemia
NCI-H460 lung = system: NCI-H460 lung
PC-3 prostate = system: PC-3 prostate
SF-539 CNS = system: SF-539 CNS
SK-MEL-28 melanoma = system: SK-MEL-28 melanoma
SW-620 colon = system: SW-620 colon

Compound	GI50 (CCRF-CEM leukemia)	TGI (CCRF-CEM leukemia)	GI50 (HL-60(TB) leukemia)	TGI (HL-60(TB) leukemia)	GI50 (HOP-62 NSCLC)	TGI (HOP-62 NSCLC)	GI50 (LOX IMVI melanoma)	TGI (LOX IMVI melanoma)	GI50 (MOLT-4 leukemia)	TGI (MOLT-4 leukemia)	GI50 (NCI-H460 lung)	TGI (NCI-H460 lung)	GI50 (PC-3 prostate)	TGI (PC-3 prostate)	GI50 (SF-539 CNS)	TGI (SF-539 CNS)	GI50 (SK-MEL-28 melanoma)	TGI (SK-MEL-28 melanoma)	GI50 (SW-620 colon)	TGI (SW-620 colon)
COC(=O)CCC(=O)c1c(C)[nH]c(/C=C2\N=C(c3ccc[nH]3)C=C2OC)c1C	0.199 µM	2.37 µM	0.602 µM	2.83 µM	0.85 µM	2.33 µM	0.0666 µM	0.261 µM	0.405 µM	1.85 µM	6.86 µM	40.9 µM	0.647 µM	2.14 µM	1.18 µM	3.03 µM	1.27 µM	3.18 µM	0.318 µM	1.32 µM
COc1cc(-c2[nH]ccc2Cl)oc1C1=C2N=C3C=C2C(C(C)C)C1CCCCCCCC3 (stereo not drawn)	–	1.74 µM	–	0.943 µM	–	2.07 µM	–	0.348 µM	–	1.74 µM	–	1.53 µM	–	1.37 µM	–	2.46 µM	–	2.84 µM	–	1.5 µM
COCCOC(=O)C1=C(C)NC2=C(C(=O)CC(c3ccccc3OC)C2)C1c1cccc(O)c1 (stereo not drawn)	11.3 µM	83.6 µM	3.2 µM	36 µM	5.84 µM	44.3 µM	9.04 µM	30.4 µM	22 µM	> 77.6 µM	15.5 µM	42.9 µM	8.15 µM	> 95.2 µM	11.9 µM	43.4 µM	12.6 µM	50.6 µM	12.5 µM	33.5 µM
CCCCCCCCCCCCCCCc1cc(O)ccc1N	0.0518 µM	–	0.142 µM	0.532 µM	> 100 µM	> 100 µM	1.39 µM	9.41 µM	0.183 µM	> 24.8 µM	> 100 µM	> 100 µM	0.463 µM	10.6 µM	0.702 µM	2.19 µM	> 67.3 µM	> 100 µM	> 100 µM	> 100 µM
COc1ccc(-c2n[nH]nc2-c2csc3ccccc23)cc1OC	3.29 µM	32.9 µM	1.7 µM	25.1 µM	2.18 µM	24.3 µM	3.04 µM	15.7 µM	3.05 µM	27.7 µM	3.56 µM	18.9 µM	3.08 µM	35.4 µM	1.84 µM	5.79 µM	4.63 µM	48.5 µM	3.09 µM	43.9 µM
COC(CCP(=O)(c1ccccc1)c1ccccc1)(C(=O)c1ccccc1)c1ccccc1 (stereo not drawn)	2.27 µM	42 µM	2.29 µM	> 100 µM	11 µM	24.8 µM	5.12 µM	19.6 µM	2.06 µM	> 100 µM	3.43 µM	14 µM	2.15 µM	12.3 µM	10.2 µM	21.9 µM	6.95 µM	19.9 µM	3.86 µM	15.7 µM
COc1cc(OC)c2c(=O)c(O)c(-c3ccc(OC)c(OC)c3)oc2c1	–	> 100 µM	–	44.3 µM	–	19.2 µM	–	> 100 µM	–	9.61 µM	–	> 100 µM	–	> 100 µM	–	> 100 µM	–	> 31.6 µM	–	> 100 µM
C=C=C(C)[Si](C)(C)C	–	> 100 µM	–	> 100 µM	–	> 100 µM	–	> 100 µM	–	> 100 µM	–	> 100 µM	–	> 100 µM	–	> 100 µM	–	> 100 µM	–	> 100 µM
O=C1OC(c2ccc(O)c(-c3ccccc3)c2)(c2ccc(O)c(-c3ccccc3)c2)c2c(Cl)c(Cl)c(Cl)c(Cl)c21	–	> 100 µM	–	12.3 µM	–	> 100 µM	–	> 100 µM	–	> 100 µM	–	> 100 µM	–	> 100 µM	–	> 100 µM	–	> 100 µM	–	> 100 µM
CCCCCCCCCCCCCCCC(=O)OCC(O)C1OC(=O)C(O)=C1O (stereo not drawn)	–	47.5 µM	–	65.9 µM	–	60.3 µM	–	46.2 µM	–	> 100 µM	–	> 100 µM	–	> 100 µM	–	53.2 µM	–	41.4 µM	–	> 100 µM
Cc1nn(C(=O)c2ccc(Cl)cc2)c2c1C(c1ccc([N+](=O)[O-])cc1)SC(N)=N2 (stereo not drawn)	–	> 10 µM	–	> 10 µM	–	> 10 µM	–	> 10 µM	–	> 10 µM	–	> 10 µM	–	> 10 µM	–	> 10 µM	–	> 10 µM	–	> 10 µM
COc1cccc(/C=N\Nc2ccc([N+](=O)[O-])cn2)c1O	3.42 µM	38.2 µM	3.13 µM	17.7 µM	3.89 µM	25.5 µM	2.58 µM	14.6 µM	3.43 µM	16.9 µM	2.05 µM	11 µM	14 µM	> 100 µM	2.93 µM	8.65 µM	19.6 µM	> 100 µM	3.94 µM	> 100 µM
COc1ccc(O)c(C(=O)c2ccc(C(=O)O[C@@H]3CCCNC[C@H]3NC(=O)c3ccncc3)cc2)c1F	0.313 µM	> 6.03 µM	0.753 µM	2.34 µM	0.514 µM	> 25 µM	1.19 µM	> 25 µM	0.456 µM	> 5.54 µM	0.869 µM	> 25 µM	3.74 µM	> 25 µM	0.0852 µM	0.779 µM	2.73 µM	> 25 µM	–	> 25 µM
COc1ccc(C(O)CNC(=O)c2ccccc2)cc1 (stereo not drawn)	–	> 100 µM	–	> 100 µM	–	> 100 µM	–	> 100 µM	–	> 100 µM	–	> 100 µM	–	> 100 µM	–	> 100 µM	–	> 100 µM	–	> 100 µM
CCCN(CCC)c1ccc(CO)c(C)c1	17.7 µM	59.9 µM	21.6 µM	48.7 µM	> 100 µM	> 100 µM	> 100 µM	> 100 µM	26.8 µM	> 100 µM	> 100 µM	> 100 µM	17.4 µM	57.6 µM	> 100 µM	> 100 µM	> 100 µM	> 100 µM	> 100 µM	> 100 µM
CC(ONC(=O)c1cc(C(F)(F)F)cc(C(F)(F)F)c1)C(=O)Nc1ccc(Cl)cc1 (stereo not drawn)	1.09 µM	5.38 µM	3.86 µM	28.3 µM	8.45 µM	24.6 µM	4.02 µM	14 µM	2.65 µM	22.3 µM	3.5 µM	15 µM	3.63 µM	18.4 µM	4.82 µM	19 µM	5.4 µM	37.4 µM	5.64 µM	23.7 µM
Cn1c(COC(=O)N2CCCCC2)nc2c(N3CCOCC3)nc(-c3ccccc3)nc21	0.307 µM	1.48 µM	0.592 µM	2.44 µM	1.42 µM	3.21 µM	0.166 µM	0.337 µM	0.353 µM	2 µM	1.58 µM	3.27 µM	0.666 µM	2.15 µM	1.33 µM	2.61 µM	1.52 µM	2.86 µM	0.235 µM	0.539 µM
